Key:
human GLP-1 receptor = biological target: T1, human GLP-1 receptor (Homo sapiens, UniProt P43220); test: cAMP response of HEK-293 cells stably expressing human GLP-1 receptor (HTRF); assay type: cell-based; details: Table 6; cAMP formation; read-out: EC50 hGLP-1R
T1 construct: expressed in transfected cells; host or cells: HEK-293
Description: (§1) cAMP content of cells was determined using a kit from Cisbio Corp. (cat. no. 62AM4PEC) based on HTRF (Homogenous Time Resolved Fluorescence). For preparation, cells were split into T175 culture flasks and grown overnight to near confluency in medium (DMEM/10% FBS). Medium was then removed and cells washed with PBS lacking calcium and magnesium, followed by proteinase treatment with accutase (Sigma-Aldrich cat. no. A6964). Detached cells were washed and resuspended in assay buffer (1×HBSS; 20 mM HEPES, 0.1% BSA, 2 mM IBMX) and cellular density determined. They were then diluted to 400000 cells/ml and 25 μl-aliquots dispensed into the wells of 96-well plates. For measurement, 25 μl of test compound in assay buffer was added to the wells, followed by incubation for 30 minutes at room temperature.
(§2) Potencies of peptidic compounds at the GLP-1, glucagon and GIP receptors were determined by exposing cells expressing human glucagon receptor (hGCG R), human GIP (hGIP R) and human GLP-1 receptor (hGLP-1 R) to the listed compounds at increasing concentrations and measuring the formed cAMP as described in Methods.

[1] = Stability testing in solution, 7 days at 40° C. (% remaining peptide, HPLC-UV); assay type: physicochemical; details: buffer, 168 h
Description: After that time course, the sample was centrifuged for 20 min at 4500 rpm and 0.2 μL of the supernatant were analysed with HPLC-UV.
For determination of the amount of the remaining peptide, the peak areas of the target compound at t0 and t7 were compared, resulting in “% remaining peptide”, following the equation % remaining peptide=[(peak area peptide t7)×100]/peak area peptide t0.
The stability is expressed as “% remaining peptide”.

[2] = Solubility testing of exendin-4 derivatives (HPLC-UV of supernatant); assay type: physicochemical
Description: Prior to the testing of solubility and stability of a peptide batch, its purity (HPLC-UV) was determined. […] Therefore, solutions from solid samples were prepared in different buffer systems with a concentration of 10 mg/mL compound based on the previously determined % purity. HPLC-UV was performed after 2 h of gentle agitation from the supernatant, which was obtained by 20 min of centrifugation at 4500 rpm. […] This analysis also served as starting point (t0) for the stability testing.

human glucagon receptor = biological target: T2, human glucagon receptor (Homo sapiens, UniProt P47871); test: cAMP response of HEK-293 cells stably expressing human glucagon receptor (HTRF); assay type: cell-based; details: Table 6; cAMP formation; read-out: EC50 hGlucagon-R
T2 construct: expressed in transfected cells; host or cells: HEK-293
Description: as §1, §2

human GIP receptor = biological target: T3, human GIP receptor (Homo sapiens, UniProt P48546); test: cAMP response of HEK-293 cells stably expressing human GIP receptor (HTRF); assay type: cell-based; details: Table 6; cAMP formation; read-out: EC50 hGIP-R
T3 construct: expressed in transfected cells; host or cells: HEK-293
T3 sequence (P48546 22-466): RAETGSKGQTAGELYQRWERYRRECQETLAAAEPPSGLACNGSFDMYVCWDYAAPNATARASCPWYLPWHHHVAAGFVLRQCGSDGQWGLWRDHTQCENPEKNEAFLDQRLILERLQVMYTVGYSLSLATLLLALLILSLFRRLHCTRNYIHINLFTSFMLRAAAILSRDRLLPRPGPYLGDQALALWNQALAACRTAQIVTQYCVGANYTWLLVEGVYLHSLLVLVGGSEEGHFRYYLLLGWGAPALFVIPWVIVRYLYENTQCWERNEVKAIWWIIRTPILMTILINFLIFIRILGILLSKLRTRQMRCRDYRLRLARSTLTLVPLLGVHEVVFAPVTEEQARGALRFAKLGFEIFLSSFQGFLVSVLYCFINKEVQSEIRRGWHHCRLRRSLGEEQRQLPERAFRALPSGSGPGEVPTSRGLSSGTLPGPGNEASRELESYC
Description: as §1, §2

[3] = Pharmacokinetic testing in mice (plasma LC/MS); details: mouse, in vivo, sc, 1 mg/kg
Description: Mice are dosed 1 mg/kg subcutaneously (s.c.). The mice are sacrificed and blood samples are collected after 0.25, 0.5, 1, 2, 4, 8, 16 and 24 hours post application. Plasma samples are analyzed after protein precipitation via liquid chromatography mass spectrometry (LC/MS). PK parameters and half-life were calculated using WinonLin Version 5.2.1 (non-compartment model).
Pharmacokinetic profiles were determined as described in Methods.

T2 sequence (P47871 26-477): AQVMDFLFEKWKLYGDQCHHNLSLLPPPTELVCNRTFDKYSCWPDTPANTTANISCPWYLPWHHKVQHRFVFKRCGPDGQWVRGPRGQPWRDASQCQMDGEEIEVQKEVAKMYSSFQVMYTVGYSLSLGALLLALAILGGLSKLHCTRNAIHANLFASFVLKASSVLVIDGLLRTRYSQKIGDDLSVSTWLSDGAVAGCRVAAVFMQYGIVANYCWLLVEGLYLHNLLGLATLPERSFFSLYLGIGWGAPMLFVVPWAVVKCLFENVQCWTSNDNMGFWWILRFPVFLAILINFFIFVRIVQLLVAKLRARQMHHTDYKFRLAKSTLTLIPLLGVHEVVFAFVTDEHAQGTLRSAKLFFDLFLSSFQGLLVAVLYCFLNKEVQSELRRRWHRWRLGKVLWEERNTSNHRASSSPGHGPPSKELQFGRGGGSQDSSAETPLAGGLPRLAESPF
T1 sequence (P43220 24-463): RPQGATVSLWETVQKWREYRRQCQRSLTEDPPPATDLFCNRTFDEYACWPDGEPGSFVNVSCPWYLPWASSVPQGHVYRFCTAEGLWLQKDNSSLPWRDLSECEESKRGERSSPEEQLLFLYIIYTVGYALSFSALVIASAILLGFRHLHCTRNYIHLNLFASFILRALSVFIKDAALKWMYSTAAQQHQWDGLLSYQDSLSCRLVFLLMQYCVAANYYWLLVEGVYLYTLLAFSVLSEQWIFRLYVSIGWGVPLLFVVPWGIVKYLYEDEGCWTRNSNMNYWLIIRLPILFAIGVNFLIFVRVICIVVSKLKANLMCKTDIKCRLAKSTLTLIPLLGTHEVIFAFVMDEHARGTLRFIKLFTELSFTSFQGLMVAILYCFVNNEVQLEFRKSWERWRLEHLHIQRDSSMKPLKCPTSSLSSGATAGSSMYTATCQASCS

Structure (SMILES) | EC50 (human GLP-1 receptor) [pM] | Stability (pH 4.5), % remaining peptide [1] [%] | Stability (pH 7.4), % remaining peptide [1] [%] | solubility at 2 h ([2]; pH 4.5) [µg/mL] | solubility at 2 h ([2]; pH 7.4) [µg/mL] | EC50 (human glucagon receptor) [pM] | EC50 (human GIP receptor) [pM] | Cmax [3] [ng/mL] | half-life [3] [h]
CCCCCCCCCCCCCCCC(=O)N[C@@H](CCC(=O)NCCCC[C@H](NC(=O)[C@H](CCC(N)=O)NC(=O)[C@H](CCCCN)NC(=O)[C@H](CO)NC(=O)[C@H](CC(C)C)NC(=O)[C@H](CC(=O)O)NC(=O)[C@H](CO)NC(=O)[C@@H](NC(=O)[C@H](Cc1ccccc1)NC(=O)[C@@H](NC(=O)CNC(=O)[C@H](Cc1c[nH]cn1)NC(=O)C(C)(C)NC(=O)[C@@H](N)Cc1c[nH]cn1)[C@@H](C)O)[C@@H](C)O)C(=O)N[C@@H](CCC(=O)O)C(=O)N[C@@H](CCC(=O)O)C(=O)N[C@@H](CCC(=O)O)C(=O)N[C@@H](C)C(=O)N[C@H](C(=O)N[C@@H](CCCNC(=N)N)C(=O)N[C@@H](CC(C)C)C(=O)N[C@@H](Cc1ccccc1)C(=O)N[C@H](C(=O)N[C@@H](CCC(=O)O)C(=O)N[C@@H](Cc1c[nH]c2ccccc12)C(=O)N[C@@H](CC(C)C)C(=O)N[C@@H](CCCCN)C(=O)N[C@@H](C)C(=O)NCC(=O)NCC(=O)N1CCC[C@H]1C(=O)N[C@@H](CO)C(=O)N[C@@H](CO)C(=O)NCC(=O)N[C@@H](C)C(=O)N1CCC[C@H]1C(=O)N1CCC[C@H]1C(=O)N1CCC[C@H]1C(=O)N[C@@H](CO)C(N)=O)[C@@H](C)CC)C(C)C)C(=O)O [compound 12] | 3.3 | 96.7 | 92.0 | > 5000 | > 5000 | 12.8 | 8.8 | – | –
CCCCCCCCCCCCCCCC(=O)N[C@@H](CCC(=O)N[C@@H](CCC(=O)NCCCC[C@H](NC(=O)[C@H](CCC(N)=O)NC(=O)[C@H](CCCCN)NC(=O)[C@H](CO)NC(=O)[C@H](CC(C)C)NC(=O)[C@H](CC(=O)O)NC(=O)[C@H](CO)NC(=O)[C@@H](NC(=O)[C@H](Cc1ccccc1)NC(=O)[C@@H](NC(=O)CNC(=O)[C@H](Cc1c[nH]cn1)NC(=O)C(C)(C)NC(=O)[C@@H](N)Cc1c[nH]cn1)[C@@H](C)O)[C@@H](C)O)C(=O)N[C@@H](CCC(=O)O)C(=O)N[C@@H](CCC(=O)O)C(=O)N[C@@H](CCC(=O)O)C(=O)N[C@@H](C)C(=O)N[C@H](C(=O)N[C@@H](CCCNC(=N)N)C(=O)N[C@@H](CC(C)C)C(=O)N[C@@H](Cc1ccccc1)C(=O)N[C@H](C(=O)N[C@@H](CCC(=O)O)C(=O)N[C@@H](Cc1c[nH]c2ccccc12)C(=O)N[C@@H](CC(C)C)C(=O)N[C@@H](CCCCN)C(=O)N[C@@H](C)C(=O)NCC(=O)NCC(=O)N1CCC[C@H]1C(=O)N[C@@H](CO)C(=O)N[C@@H](CO)C(=O)NCC(=O)N[C@@H](C)C(=O)N1CCC[C@H]1C(=O)N1CCC[C@H]1C(=O)N1CCC[C@H]1C(=O)N[C@@H](CO)C(N)=O)[C@@H](C)CC)C(C)C)C(=O)O)C(=O)O [compound 11] | – | 97.5 | 95.8 | > 5000 | > 5000 | 8.9 | 7.9 | 3510 | 3.3
CCCCCCCCCCCCCCCC(=O)N[C@@H](CCC(=O)NCCCC[C@H](NC(=O)[C@H](CCC(N)=O)NC(=O)[C@H](CCCCN)NC(=O)[C@H](CO)NC(=O)[C@H](CC(C)C)NC(=O)[C@H](CC(=O)O)NC(=O)[C@H](CO)NC(=O)[C@@H](NC(=O)[C@H](Cc1ccccc1)NC(=O)[C@@H](NC(=O)CNC(=O)[C@H](Cc1c[nH]cn1)NC(=O)[C@@H](CO)NC(=O)[C@@H](N)Cc1c[nH]cn1)[C@@H](C)O)[C@@H](C)O)C(=O)N[C@@H](CCC(=O)O)C(=O)N[C@@H](CCC(=O)O)C(=O)N[C@@H](CCC(=O)O)C(=O)N[C@@H](C)C(=O)N[C@H](C(=O)N[C@@H](CCCNC(=N)N)C(=O)N[C@@H](CC(C)C)C(=O)N[C@@H](Cc1ccccc1)C(=O)N[C@H](C(=O)N[C@@H](CCC(=O)O)C(=O)N[C@@H](Cc1c[nH]c2ccccc12)C(=O)N[C@@H](CC(C)C)C(=O)N[C@@H](CCCCN)C(=O)N[C@@H](C)C(=O)NCC(=O)NCC(=O)N1CCC[C@H]1C(=O)N[C@@H](CO)C(=O)N[C@@H](CO)C(=O)NCC(=O)N[C@@H](C)C(=O)N1CCC[C@H]1C(=O)N1CCC[C@H]1C(=O)N1CCC[C@H]1C(=O)N[C@@H](CO)C(N)=O)[C@@H](C)CC)C(C)C)C(=O)O [compound 14] | 4.1 | – | – | – | – | 58.4 | 437 | – | –
